Measurements taken from patent US9919001B2, “Drug carrier having L-DNA nanocage structure” (Korea Institute of Science and Technology, priority 2013, dated 2018).

Test system: MCF-7/ADR cells
Assay: MTT cell viability assay (small molecule drug delivery)
Assay type: cell-based
Details: average of triplicate
Protocol: For DOX intercalation into the Cy5-labeled Td, DOX (1 mM) was mixed with the fluorescent DNA tetrahedron (10 μM) for 1 h and then run through NAP10 (G25-DNA grade column, GE Healthcare, USA) to remove the free DOX remaining in solution. The number of intercalated DOX molecules per DNA tetrahedron was calculated using the extinction coefficient of Cy5 at 633 nm (ϵ=230400) and that of DOX at 480 nm (ϵ=10410), respectively.
Drug-sensitive MCF-7 cells and drug-resistant MCF-7/ADR cells were used for cell viability assays. Cytotoxicity of Td was estimated using an MTT assay. Briefly, 8×10^3 mammalian cells were seeded with media (100 μL) in 96-well plates and cultured overnight to reach ˜80% confluency. The cells were then incubated in the fresh media containing Td at 37° C. for 6 h in the CO2 chamber. […] Then, thiazolyl blue tetrazolium bromide (MTT, TACS, Germany) solution (10 μL) was added to each well, followed by 4 h incubation at 37° C. Next, cells were lysed with 200 μL of dimethyl sulfoxide (DMSO, Sigma-Aldrich, USA). After overnight incubation at room temperature, the absorbance was measured at 580 nm using a microplate reader (SpectraMaxPlus™, Molecular Devices, USA).

COc1cccc2c1C(=O)c1c(O)c3c(c(O)c1C2=O)C[C@@](O)(C(=O)CO)C[C@@H]3O[C@H]1C[C@H](N)[C@H](O)[C@H](C)O1 [Free-DOX, doxorubicin]
Cell viability assay (%) (24 h): 98.9% | Cell viability assay (%) (48 h): 93.6% | Cell viability assay (%) (72 h): 89.2%
